ChEMBL document CHEMBL1201862, “PubChem BioAssay data set” (2004)
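Method: 48-hour compound exposure of cells in 96-well plates, five concentrations, linear interpolation of endpoints. Abbreviation: GI50, concentration required for 50% inhibition of growth.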 Calls of active or inactive are those of the source. Rule as the data show it: active = GI50 up to about 1.1 µM and inactive = higher.

Key:
Assay in all cases: growth of human tumour cells (NCI), 48 h
786-0 = test system: 786-0
A549 = test system: A549
Hs-578T = test system: Hs-578T
K562 = test system: K562
KM12 = test system: KM12
LOX IMVI = test system: LOX IMVI
MOLT-4 = test system: MOLT-4
OVCAR-5 = test system: OVCAR-5
OVCAR-8 = test system: OVCAR-8
RXF 393 = test system: RXF 393
SK-MEL-28 = test system: SK-MEL-28
SK-MEL-2 = test system: SK-MEL-2
SK-MEL-5 = test system: SK-MEL-5
SNB-19 = test system: SNB-19
SNB-75 = test system: SNB-75
TK-10 = test system: TK-10
U-251 = test system: U-251
UACC-62 = test system: UACC-62
NCI-H226 = test system: NCI-H226
HL-60 = test system: HL-60

Compound	GI50 (786-0)	GI50 (A549)	GI50 (Hs-578T)	GI50 (K562)	GI50 (KM12)	GI50 (LOX IMVI)	GI50 (MOLT-4)	GI50 (OVCAR-5)	GI50 (OVCAR-8)	GI50 (RXF 393)	GI50 (SK-MEL-28)	GI50 (SK-MEL-2)	GI50 (SK-MEL-5)	GI50 (SNB-19)	GI50 (SNB-75)	GI50 (TK-10)	GI50 (U-251)	GI50 (UACC-62)	GI50 (NCI-H226)	GI50 (HL-60)
CCCCn1cnc2c(SC)ncnc21	> 100 µM (inactive)	> 100 µM (inactive)	> 100 µM (inactive)	44.8 µM (inactive)	> 100 µM (inactive)	> 100 µM (inactive)	28.4 µM (inactive)	> 100 µM (inactive)	> 100 µM (inactive)	> 100 µM (inactive)	> 100 µM (inactive)	> 100 µM (inactive)	> 100 µM (inactive)	> 100 µM (inactive)	> 100 µM (inactive)	> 100 µM (inactive)	> 100 µM (inactive)	> 100 µM (inactive)	–	–
CC(C)(C)OC(=O)NC(Cc1ccc(OC(C)(C)C)cc1)C(=O)N[C@H]1CCC[C@H]1C(=O)NC(Cc1ccccc1)C(=O)N1CCCC1C(N)=O (some centres undefined)	> 100 µM (inactive)	> 100 µM (inactive)	> 100 µM (inactive)	> 100 µM (inactive)	> 100 µM (inactive)	> 100 µM (inactive)	> 100 µM (inactive)	> 100 µM (inactive)	> 100 µM (inactive)	> 100 µM (inactive)	> 100 µM (inactive)	> 100 µM (inactive)	> 100 µM (inactive)	> 100 µM (inactive)	> 100 µM (inactive)	> 100 µM (inactive)	> 100 µM (inactive)	> 100 µM (inactive)	> 100 µM (inactive)	–
COC(=O)c1cc(CC2Cc3cc4c(cc3C2=O)CCC4)cc2c1CCC2 (centres undefined)	55.2 µM (inactive)	> 100 µM (inactive)	24.8 µM (inactive)	39.1 µM (inactive)	> 100 µM (inactive)	> 100 µM (inactive)	> 100 µM (inactive)	> 100 µM (inactive)	> 100 µM (inactive)	–	> 100 µM (inactive)	63.7 µM (inactive)	–	> 100 µM (inactive)	31.3 µM (inactive)	> 100 µM (inactive)	> 100 µM (inactive)	95.1 µM (inactive)	> 100 µM (inactive)	> 100 µM (inactive)
Clc1ccccc1-c1nn2c(CCCCCCCCc3nnc4sc(-c5ccccc5Cl)nn34)nnc2s1	> 100 µM (inactive)	> 100 µM (inactive)	> 100 µM (inactive)	> 100 µM (inactive)	87.3 µM (inactive)	63.1 µM (inactive)	16.5 µM (inactive)	> 100 µM (inactive)	> 100 µM (inactive)	> 100 µM (inactive)	> 100 µM (inactive)	> 100 µM (inactive)	63.1 µM (inactive)	> 100 µM (inactive)	> 100 µM (inactive)	> 100 µM (inactive)	> 100 µM (inactive)	> 100 µM (inactive)	> 100 µM (inactive)	–
COc1cc(/C=C/C(=O)C2(C(=O)/C=C/c3cc(OC)c(OC)c(OC)c3)CCCCC2)cc(OC)c1OC	43.2 µM (inactive)	> 100 µM (inactive)	29.6 µM (inactive)	51.3 µM (inactive)	26.6 µM (inactive)	38.7 µM (inactive)	–	94.2 µM (inactive)	24.1 µM (inactive)	–	46.3 µM (inactive)	> 100 µM (inactive)	34.8 µM (inactive)	36.6 µM (inactive)	56.4 µM (inactive)	34.3 µM (inactive)	30.1 µM (inactive)	26.2 µM (inactive)	32.7 µM (inactive)	52 µM (inactive)
CNc1ncnc2c1cnn2Cc1cn(COCC(O)CO)nn1 (centres undefined)	> 100 µM (inactive)	> 100 µM (inactive)	0.149 µM (active)	–	> 100 µM (inactive)	> 100 µM (inactive)	–	> 100 µM (inactive)	> 100 µM (inactive)	–	> 100 µM (inactive)	> 100 µM (inactive)	> 100 µM (inactive)	> 100 µM (inactive)	–	> 100 µM (inactive)	> 100 µM (inactive)	> 100 µM (inactive)	> 100 µM (inactive)	> 100 µM (inactive)
c1ccc2c(c1)CCc1c-2n(CCN2CCOCC2)c2ccccc12	> 100 µM (inactive)	> 100 µM (inactive)	12.8 µM (inactive)	2.14 µM (inactive)	13.5 µM (inactive)	> 100 µM (inactive)	29.9 µM (inactive)	> 100 µM (inactive)	> 100 µM (inactive)	–	34.6 µM (inactive)	11.8 µM (inactive)	18.8 µM (inactive)	> 100 µM (inactive)	–	> 100 µM (inactive)	> 100 µM (inactive)	> 100 µM (inactive)	52.6 µM (inactive)	–
c1ccc2c[n+](Cc3ccnc4ccccc34)ccc2c1	> 100 µM (inactive)	> 100 µM (inactive)	> 100 µM (inactive)	> 100 µM (inactive)	> 100 µM (inactive)	> 100 µM (inactive)	> 100 µM (inactive)	> 100 µM (inactive)	> 100 µM (inactive)	> 100 µM (inactive)	> 100 µM (inactive)	> 100 µM (inactive)	42.8 µM (inactive)	> 100 µM (inactive)	–	> 100 µM (inactive)	> 100 µM (inactive)	> 100 µM (inactive)	41.8 µM (inactive)	–
CC(C)(C)OC(=O)NC(C)(C)C(=O)NCCC(=O)O	> 100 µM (inactive)	> 100 µM (inactive)	> 100 µM (inactive)	> 100 µM (inactive)	> 100 µM (inactive)	> 100 µM (inactive)	> 100 µM (inactive)	> 100 µM (inactive)	> 100 µM (inactive)	> 100 µM (inactive)	> 100 µM (inactive)	> 100 µM (inactive)	> 100 µM (inactive)	> 100 µM (inactive)	> 100 µM (inactive)	> 100 µM (inactive)	> 100 µM (inactive)	> 100 µM (inactive)	> 100 µM (inactive)	–
O=[N+]([O-])/C(C(Cl)=C(Cl)Cl)=C(\Nc1ccccc1)n1nnc2ccccc21	48.9 µM (inactive)	> 100 µM (inactive)	20.6 µM (inactive)	> 100 µM (inactive)	20.5 µM (inactive)	17.4 µM (inactive)	35.5 µM (inactive)	42.1 µM (inactive)	> 100 µM (inactive)	–	32.7 µM (inactive)	27.2 µM (inactive)	–	41.7 µM (inactive)	> 100 µM (inactive)	–	29.9 µM (inactive)	40 µM (inactive)	> 100 µM (inactive)	–
O=C1/C(=C2\Sc3c(ccc(Cl)c3Cl)C2=O)Sc2c1ccc(Cl)c2Cl	> 100 µM (inactive)	> 100 µM (inactive)	> 100 µM (inactive)	> 100 µM (inactive)	> 100 µM (inactive)	–	> 100 µM (inactive)	> 100 µM (inactive)	> 100 µM (inactive)	89.1 µM (inactive)	> 100 µM (inactive)	> 100 µM (inactive)	> 100 µM (inactive)	> 100 µM (inactive)	20.3 µM (inactive)	> 100 µM (inactive)	> 100 µM (inactive)	> 100 µM (inactive)	> 100 µM (inactive)	–
COC(OC)[C@@H]1OC[C@H](n2cnc3c(N)ncnc32)[C@H]1O	> 100 µM (inactive)	> 100 µM (inactive)	> 100 µM (inactive)	> 100 µM (inactive)	> 100 µM (inactive)	> 100 µM (inactive)	> 100 µM (inactive)	> 100 µM (inactive)	–	> 100 µM (inactive)	> 100 µM (inactive)	> 100 µM (inactive)	> 100 µM (inactive)	5.06 µM (inactive)	> 100 µM (inactive)	> 100 µM (inactive)	> 100 µM (inactive)	> 100 µM (inactive)	> 100 µM (inactive)	–
Cc1nc2ccc(S(=O)(=O)Nc3ccccc3)cc2c(=O)n1NC(=O)CNc1ccccc1	> 100 µM (inactive)	> 100 µM (inactive)	> 100 µM (inactive)	> 100 µM (inactive)	> 100 µM (inactive)	> 100 µM (inactive)	> 100 µM (inactive)	> 100 µM (inactive)	> 100 µM (inactive)	–	> 100 µM (inactive)	> 100 µM (inactive)	–	> 100 µM (inactive)	> 100 µM (inactive)	> 100 µM (inactive)	> 100 µM (inactive)	> 100 µM (inactive)	> 100 µM (inactive)	> 100 µM (inactive)
CCCC[C@@H]1CCN2C[C@@H](O)[C@@H](O)[C@H]2[C@@H]1O	> 100 µM (inactive)	> 100 µM (inactive)	> 100 µM (inactive)	> 100 µM (inactive)	> 100 µM (inactive)	> 100 µM (inactive)	> 100 µM (inactive)	> 100 µM (inactive)	> 100 µM (inactive)	–	> 100 µM (inactive)	> 100 µM (inactive)	> 100 µM (inactive)	> 100 µM (inactive)	> 100 µM (inactive)	> 100 µM (inactive)	> 100 µM (inactive)	> 100 µM (inactive)	> 100 µM (inactive)	> 100 µM (inactive)
CC(=O)Oc1ccc(/C=C/C(=O)NCC(NC(=O)/C=C/c2ccc(OC(C)=O)c(OC(C)=O)c2)C(=O)O)cc1OC(C)=O (centres undefined)	> 100 µM (inactive)	> 100 µM (inactive)	> 100 µM (inactive)	56.2 µM (inactive)	> 100 µM (inactive)	97.3 µM (inactive)	20.1 µM (inactive)	> 100 µM (inactive)	> 100 µM (inactive)	> 100 µM (inactive)	> 100 µM (inactive)	> 100 µM (inactive)	> 100 µM (inactive)	> 100 µM (inactive)	–	> 100 µM (inactive)	> 100 µM (inactive)	> 100 µM (inactive)	> 100 µM (inactive)	–
